{"source": "patent US12128029B2", "about": "“Treatment of idiopathic pulmonary fibrosis” (VICORE PHARMA AB, priority 2022, dated 2024)", "key": {"patients with IPF": {"test_system": "patients with IPF", "settings": "over the period of a year; cited from earlier work"}, "[1]": {"experiment": "Sensitivity of C21 and salts to light and water", "assay_type": "physicochemical", "settings": "C21 and salts thereof"}, "[2]": {"test_system": "model of obstructive lung disease (specifically COPD)", "settings": "cited from earlier work"}, "subjects with IPF": {"test_system": "subjects with IPF", "experiment": "Phase II, multi-centre, open-label, single-arm trial of the safety, efficacy and pharmacokinetics of C21 in subjects with IPF", "settings": "for mean change in FVC from baseline: C21 100 mg b.i.d. orally (sodium salt capsules), observed data, FIG. 1", "description": "The primary objective of the study is/was to investigate the safety of C21, 200 mg daily dose (100 mg b.i.d.) administered orally to subjects with IPF. The secondary objectives are/were to evaluate the effect on lung function decline of C21 and the pharmacokinetics of C21 at the same daily dose. Exploratory objectives include the investigation of a range of laboratory parameters as potential biomarkers of inflammation and fibrosis.\nThe primary endpoint of the trial is the nature and frequency of adverse events occurring over the trial period.\nSecondary endpoints included changes from baseline in: • FVC (defined as the maximum amount of air that can be forcibly exhaled from the lungs after fully inhaling) at Weeks 12, 24 and 36; • plasma concentration of C21 and derived PK parameters evaluated in a sub-set of subjects.\nC21 has been administered twice daily to the subjects for 36 weeks as follows: • morning dose: two 50 mg capsules (100 mg C21 or placebo) to be taken with a glass of water after minimum 2 hours fasting; and • afternoon/evening dose: two 50 mg capsules (100 mg C21 or placebo) to be taken with a glass of water after minimum 2 hours fasting. Subjects are required not to eat anything for 1 hour after taking the study drug.\nThe patients were enrolled to receive C21 (100 mg b.i.d.) for 36 weeks in total."}, "[3]": {"settings": "interim analysis, 21 subjects, C21 100 mg b.i.d."}}}
{"smiles": "COC(=O)c1ccc2c(c1)NC(=O)/C2=C(\\Nc1ccc(N(C)C(=O)CN2CCN(C)CC2)cc1)c1ccccc1", "note": "[nintedanib]", "values": [{"measurement": "reduction in the rate of decline in lung function (FVC measurements)", "setting": "patients with IPF", "value": "approximately 50%"}]}
{"smiles": "Cc1ccc(=O)n(-c2ccccc2)c1", "note": "[pirfenidone]", "values": [{"measurement": "reduction in the rate of decline in lung function (FVC measurements)", "setting": "patients with IPF", "value": "approximately 50%"}]}
{"smiles": "CCCCOC(=O)NS(=O)(=O)c1sc(CC(C)C)cc1-c1ccc(Cn2ccnc2)cc1", "note": "[C21, N-butyloxycarbonyl-3-(4-imidazol-1-ylmethylphenyl)-5-iso-butylthiophene-2-sulfonamide]", "values": [{"measurement": "sensitivity to the combined presence of light and water", "setting": "[1]", "value": "extreme sensitivity"}, {"measurement": "effect on cigarette smoke-induced emphysema", "setting": "[2]", "value": "prevented cigarette smoke-induced emphysema"}, {"measurement": "effect on lung functions", "setting": "[2]", "value": "improved lung functions"}, {"measurement": "mean change in FVC from baseline", "setting": "subjects with IPF; 24 weeks", "value": "+250 mL"}, {"measurement": "difference in mean FVC change versus expected mean decline in untreated patients", "setting": "subjects with IPF; 24 weeks, expected decline -120 mL, based on previously published IPF trials", "value": "+371 mL"}, {"measurement": "mean change in FVC from baseline", "setting": "subjects with IPF; 36 weeks", "value": "+750 mL"}, {"measurement": "difference in mean FVC change versus expected mean decline in untreated patients", "setting": "subjects with IPF; 36 weeks, expected decline -180 mL", "value": "+930 mL"}, {"measurement": "gastrointestinal signals", "setting": "subjects with IPF; [3]", "value": "no gastrointestinal signals"}, {"measurement": "overall safety profile", "setting": "subjects with IPF; [3]", "value": "no safety profile concerns"}, {"measurement": "related serious adverse events", "setting": "subjects with IPF; [3]", "value": "no related serious adverse events"}, {"measurement": "deaths in the ongoing trial", "setting": "subjects with IPF; reported to be due to COVID-19 and not related to C21", "value": 1}, {"measurement": "p value of slope (change in FVC scaled to 24 weeks, by visit, observed cases) versus expected mean in untreated patients", "setting": "subjects with IPF; week 28", "value": 0.012}, {"measurement": "p value of slope (change in FVC scaled to 24 weeks, by visit, observed cases) versus expected mean in untreated patients", "setting": "subjects with IPF; week 32", "value": 0.032}, {"measurement": "p value of slope (change in FVC scaled to 24 weeks, by visit, observed cases) versus expected mean in untreated patients", "setting": "subjects with IPF; week 36", "value": 0.016}]}
